One series concerns Bibionidae. The conditions noted are these: chronic/long-term.
The subject of a further series is Canidae. The conditions noted are these: chronic; duration: 1 years; oral; F; Dog Other; body weight.
Another series concerns Daphnia magna. As to conditions: chronic/long-term; duration: 21 days; reproduction.
A further series relates to Folsomia candida. The conditions noted are these: chronic/long-term.
The subject of the next series is Hypoaspis aculeifer. The conditions noted are these: chronic/long-term.
The test system of a further series is Oncorhynchus mykiss. As to conditions: acute; duration: 96 hours; mortality.
The test system of the next series is Oryctolagus sp. The conditions noted are these: reproduction developmental; body weight.
In another series the test system is Pimephales promelas. The conditions noted are these: chronic/long-term; duration: 34 days; growth.
A further series has as its system Aphidius rhopalosiphi. Briefly: LR50; higher = less toxic. The conditions noted are these: not reported; mortality.
The next series has as its system Typhlodromus pyri. Briefly: LR50; higher = less toxic. As to conditions: not reported; mortality.

The term NOAEL denotes the highest dose or exposure tested at which no adverse effect was seen. Consider `[Br-].[Br-].c1cc[n+]2c(c1)-c1cccc[n+]1CC2` [Diquat dibromide], for which the LD50 with Anas platyrhynchos (acute, oral, unspecified, mortality) worked out at 71 mg/kg-day; in the series with Rattus norvegicus (acute, M, mortality) it was 214 mg/kg-day. Moreover, the no observed adverse effect level (NOAEL) came out at 0.5 mg/kg-day in the series with Anas platyrhynchos (reproductive); 0.5 mg/kg-day with Canidae; 1 mg/kg-day with Oryctolagus sp.; 0.2 mg/kg-day in the series with Rattus norvegicus (chronic, duration: 2 years, ophthalmoscopic examination); 0.2 mg/kg-day in the series with Rattus norvegicus (reproduction developmental). In addition, the NOEC came out at 100 mg/kg in the series on Bibionidae (duration: 20 days); 1270 µg/L in the series with Bibionidae (duration: 28 days); 125 µg/L in the series on Daphnia magna; 9.38 mg/kg in the series with Folsomia candida; 50 mg/kg in the series with Hypoaspis aculeifer; 120 µg/L in the series on Pimephales promelas. The NOEC with Tagia sp. (chronic/long-term, duration: 8 weeks) is 37 mg/kg. Further, the LC50 stood at 6.1 µg/mL in the series with Oncorhynchus mykiss and 94.3 mg/kg with Tagia sp. (acute, duration: 14 days, mortality). Further, the results for the LR50 in the series with Aphidius rhopalosiphi and with Typhlodromus pyri were 3.2 g/ha and 2.9 g/ha, respectively.

For the origin of these results see EPA's ToxValDB 9.5 (doi:10.2903/j.efsa.2015.4308).
